{
  "source": "ChEMBL document CHEMBL4118139",
  "about": "“Novel naphthyloxy derivatives - Potent histamine H3 receptor ligands. Synthesis and pharmacological evaluation” (Bioorg Med Chem, 2018)",
  "key": {"[1]": {"test_system": "Mus musculus", "assay": "Analgesic activity in ip dosed albino Swiss CD1 mouse assessed reduction in formalin-induced inflammatory pain by measuring reduction in time spent in licking pretreated prior to formalin injection measured at 15 to 30 mins post formalin injection", "assay_type": "functional"}, "[2]": {"test_system": "Mus musculus", "assay": "Neurotoxicity in albino CF-1 mouse at 50 mg/kg after 0.5 hrs by rotarod test", "assay_type": "toxicity, organism-based", "conditions": "in vivo"}, "[3]": {"molecular_target": "5-hydroxytryptamine receptor 6 (Homo sapiens, UniProt P50406)", "sequence (P50406 whole entry)": "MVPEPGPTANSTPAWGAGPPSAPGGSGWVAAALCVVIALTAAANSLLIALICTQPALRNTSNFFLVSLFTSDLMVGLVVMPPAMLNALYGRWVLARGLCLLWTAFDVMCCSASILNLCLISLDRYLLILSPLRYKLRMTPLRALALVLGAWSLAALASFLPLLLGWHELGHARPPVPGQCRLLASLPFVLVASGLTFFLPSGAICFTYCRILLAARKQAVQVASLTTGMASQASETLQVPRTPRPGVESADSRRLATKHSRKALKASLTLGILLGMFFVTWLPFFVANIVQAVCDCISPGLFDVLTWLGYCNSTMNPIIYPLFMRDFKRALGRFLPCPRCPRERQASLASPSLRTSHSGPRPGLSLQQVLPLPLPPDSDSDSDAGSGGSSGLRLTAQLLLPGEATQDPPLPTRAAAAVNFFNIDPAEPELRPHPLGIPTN", "assay": "Displacement of [3H]-LSD from human 5-HT6 receptor expressed in HEK293 cell membranes after 1 hr"}, "[4]": {"test_system": "Mus musculus", "assay": "Analgesic activity in ip dosed albino Swiss CD1 mouse assessed reduction in formalin-induced inflammatory pain by measuring reduction in time spent in licking treated prior to formalin injection measured at 0 to 5 mins post formalin injection", "assay_type": "functional"}, "[5]": {"test_system": "Rattus norvegicus", "assay": "Anticonvulsant activity in Sprague-Dawley rat assessed as protection against maximal electroshock-induced seizures at 30 mg/kg, ip after 1 hr", "assay_type": "functional, organism-based"}, "[6]": {"test_system": "Mus musculus", "assay": "Neurotoxicity in albino CF-1 mouse at 50 mg/kg, ip after 0.5 hrs by rotarod test", "assay_type": "toxicity, organism-based", "conditions": "in vivo"}, "[7]": {"test_system": "Mus musculus", "assay": "Anticonvulsant activity in ip dosed albino CF-1 mouse assessed as protection against 32 mA current-induced seizure after 1 hr by 6 Hz psychomotor test", "assay_type": "functional", "conditions": "CF-1, ip"}, "[8]": {"test_system": "Rattus norvegicus", "assay": "Anticonvulsant activity in ip dosed Sprague-Dawley rat assessed as protection against maximal electroshock-induced seizures after 0.25 hrs", "assay_type": "functional"}, "[9]": {"test_system": "Mus musculus", "assay": "Anticonvulsant activity in ip dosed albino CF-1 mouse assessed as protection against subcutaneous pentylenetetrazole-induced seizures measured after 1 hr", "assay_type": "functional", "conditions": "CF-1, 1 h"}, "[10]": {"test_system": "Mus musculus", "assay": "Neurotoxicity in albino CF-1 mouse at 50 mg/kg after 0.25 hrs by rotarod test", "assay_type": "toxicity, organism-based", "conditions": "in vivo"}, "[11]": {"test_system": "Mus musculus", "assay": "Neurotoxicity in albino CF-1 mouse at 30 mg/kg, ip after 4 hrs by rotarod test", "assay_type": "toxicity, organism-based", "conditions": "in vivo"}, "[12]": {"test_system": "Mus musculus", "assay": "Neurotoxicity in albino CF-1 mouse at 65 mg/kg after 1 hr by rotarod test", "assay_type": "toxicity, organism-based", "conditions": "in vivo"}, "[13]": {"test_system": "Mus musculus", "assay": "Anticonvulsant activity in albino CF-1 mouse assessed as protection against 32 mA current-induced seizure at 50 mg/kg, ip after 4 hrs by 6 Hz psychomotor test", "assay_type": "functional, organism-based"}, "[14]": {"test_system": "Mus musculus", "assay": "Neurotoxicity in albino CF-1 mouse at 50 mg/kg, ip after 4 hrs by rotarod test", "assay_type": "toxicity, organism-based", "conditions": "in vivo"}, "[15]": {"assay": "Neurotoxicity in ip dosed albino CF-1 mouse after 0.25 hrs by rotarod test", "assay_type": "toxicity, organism-based", "conditions": "in vivo"}, "[16]": {"test_system": "Mus musculus", "assay": "Neurotoxicity in albino CF-1 mouse assessed as increase in subcutaneous pentylenetetrazole-induced continuous seizures at 50 mg/kg, ip measured after 2 hrs", "assay_type": "toxicity, organism-based", "conditions": "in vivo"}, "[17]": {"test_system": "HEK293", "assay": "Cytotoxicity against HEK293 cells assessed as reduction in cell viability after 72 hrs by MTS assay", "assay_type": "cell-based", "conditions": "Homo sapiens, HEK293, 72 h"}, "[18]": {"test_system": "Mus musculus", "assay": "Anticonvulsant activity in albino CF-1 mouse assessed as protection against maximal electroshock-induced seizures at 50 mg/kg, ip after 0.25 hrs", "assay_type": "functional, organism-based"}, "[19]": {"test_system": "Mus musculus", "assay": "Neurotoxicity in albino CF-1 mouse at 30 mg/kg, ip after 1 hr by rotarod test", "assay_type": "toxicity, organism-based", "conditions": "in vivo"}, "[20]": {"test_system": "Mus musculus", "assay": "Anticonvulsant activity in albino CF-1 mouse assessed as protection against subcutaneous pentylenetetrazole-induced seizures at 50 mg/kg, ip measured after 4 hrs", "assay_type": "functional, organism-based"}, "[21]": {"test_system": "Rattus norvegicus", "assay": "Anticonvulsant activity in Sprague-Dawley rat assessed as protection against maximal electroshock-induced seizures at 30 mg/kg, po after 2 hrs", "assay_type": "functional, organism-based"}, "[22]": {"test_system": "Mus musculus", "assay": "Anticonvulsant activity in albino CF-1 mouse assessed as protection against maximal electroshock-induced seizures at 50 mg/kg, ip after 4 hrs", "assay_type": "functional, organism-based"}, "[23]": {"test_system": "Rattus norvegicus", "assay": "Anticonvulsant activity in Sprague-Dawley rat assessed as protection against maximal electroshock-induced seizures at 30 mg/kg, po after 0.25 hrs", "assay_type": "functional, organism-based"}, "[24]": {"molecular_target": "Muscarinic acetylcholine receptor M3 (Cavia porcellus) (UniProt Q8VH26)", "sequence (Q8VH26 1-587)": "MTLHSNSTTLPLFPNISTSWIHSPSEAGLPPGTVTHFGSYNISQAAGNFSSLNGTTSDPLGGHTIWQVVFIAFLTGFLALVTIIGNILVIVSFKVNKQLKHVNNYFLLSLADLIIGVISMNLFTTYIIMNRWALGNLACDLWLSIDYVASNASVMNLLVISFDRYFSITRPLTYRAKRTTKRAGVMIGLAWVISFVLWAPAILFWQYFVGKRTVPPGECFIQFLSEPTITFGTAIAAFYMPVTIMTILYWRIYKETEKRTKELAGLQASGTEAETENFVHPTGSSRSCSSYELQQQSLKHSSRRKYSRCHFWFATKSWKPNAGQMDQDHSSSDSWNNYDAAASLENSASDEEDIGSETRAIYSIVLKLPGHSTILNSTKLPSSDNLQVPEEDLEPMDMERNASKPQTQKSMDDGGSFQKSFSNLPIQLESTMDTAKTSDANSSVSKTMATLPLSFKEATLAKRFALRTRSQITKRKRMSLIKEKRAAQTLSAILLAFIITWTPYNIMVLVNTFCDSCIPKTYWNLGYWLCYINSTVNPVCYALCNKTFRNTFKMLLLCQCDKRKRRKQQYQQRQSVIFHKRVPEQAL", "assay": "Agonist activity at muscarinic M3 receptor in guinea-pig ileum assessed as induction of contractions at 1 to 3 uM after 15 mins", "assay_type": "functional"}, "[25]": {"test_system": "IMR-32", "assay": "Cytotoxicity against human IMR32 cells assessed as reduction in cell viability after 72 hrs by MTS assay", "assay_type": "cell-based", "conditions": "IMR-32, 72 h"}, "[26]": {"test_system": "Rattus norvegicus", "assay": "Anticonvulsant activity in Sprague-Dawley rat assessed as protection against maximal electroshock-induced seizures at 30 mg/kg, po after 4 hrs", "assay_type": "functional, organism-based"}, "[27]": {"test_system": "Mus musculus", "assay": "Anticonvulsant activity in albino CF-1 mouse assessed as protection against maximal electroshock-induced seizures at 50 mg/kg, ip after 0.5 hrs", "assay_type": "functional, organism-based"}, "[28]": {"molecular_target": "Histamine H3 receptor (Homo sapiens, UniProt Q9Y5N1)", "sequence (Q9Y5N1 whole entry)": "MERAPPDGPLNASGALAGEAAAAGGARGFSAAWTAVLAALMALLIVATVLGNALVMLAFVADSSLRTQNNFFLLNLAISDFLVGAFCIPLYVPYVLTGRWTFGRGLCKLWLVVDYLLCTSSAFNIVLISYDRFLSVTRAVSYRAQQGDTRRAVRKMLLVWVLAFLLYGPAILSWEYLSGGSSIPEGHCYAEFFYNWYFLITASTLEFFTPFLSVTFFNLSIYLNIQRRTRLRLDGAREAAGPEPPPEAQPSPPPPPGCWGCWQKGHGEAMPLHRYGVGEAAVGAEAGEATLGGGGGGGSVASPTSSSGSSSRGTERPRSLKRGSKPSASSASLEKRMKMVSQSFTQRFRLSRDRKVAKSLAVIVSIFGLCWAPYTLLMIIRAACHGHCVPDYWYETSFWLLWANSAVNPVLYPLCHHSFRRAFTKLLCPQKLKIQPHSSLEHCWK", "assay": "Antagonist activity at human H3 receptor expressed in HEK293 cells assessed as inhibition of RAMH-induced reduction of forskolin-stimulated cAMP accumulation after 30 mins by Ulight-based TR-FRET assay", "assay_type": "functional, cell-based"}, "[29]": {"test_system": "Rattus norvegicus", "assay": "Anticonvulsant activity in Sprague-Dawley rat assessed as protection against maximal electroshock-induced seizures at 30 mg/kg, ip after 0.5 hrs", "assay_type": "functional, organism-based"}, "[30]": {"test_system": "Mus musculus", "assay": "Anticonvulsant activity in albino CF-1 mouse assessed as protection against 44 mA current-induced seizure at 50 mg/kg, ip after 4 hrs by 6 Hz psychomotor test", "assay_type": "functional, organism-based"}, "[31]": {"assay": "Therapeutic index, ratio of po dosed Sprague-Dawley rat TD50 to po dosed Sprague-Dawley rat ED50 for MES assay", "assay_type": "toxicity, organism-based", "conditions": "in vivo, read-out: TI"}, "[32]": {"test_system": "Mus musculus", "assay": "Neurotoxicity in albino CF-1 mouse at 50 mg/kg after 4 hrs by rotarod test", "assay_type": "toxicity, organism-based", "conditions": "in vivo"}, "[33]": {"test_system": "Mus musculus", "assay": "Anticonvulsant activity in albino CF-1 mouse assessed as protection against 44 mA current-induced seizure at 50 mg/kg, ip after 2 hrs by 6 Hz psychomotor test", "assay_type": "functional, organism-based"}, "[34]": {"test_system": "Mus musculus", "assay": "Anticonvulsant activity in ip dosed albino CF-1 mouse assessed as protection against 44 mA current-induced seizure after 0.25 hrs by 6 Hz psychomotor test", "assay_type": "functional", "conditions": "CF-1, ip"}, "[35]": {"assay": "Therapeutic index, ratio of ip dosed albino CF-1 mouse TD50 to ip dosed albino CF-1 mouse ED50 for MES assay", "assay_type": "toxicity, organism-based", "conditions": "in vivo, read-out: TI"}, "[36]": {"molecular_target": "5-hydroxytryptamine receptor 2A (Homo sapiens, UniProt P28223)", "sequence (P28223 whole entry)": "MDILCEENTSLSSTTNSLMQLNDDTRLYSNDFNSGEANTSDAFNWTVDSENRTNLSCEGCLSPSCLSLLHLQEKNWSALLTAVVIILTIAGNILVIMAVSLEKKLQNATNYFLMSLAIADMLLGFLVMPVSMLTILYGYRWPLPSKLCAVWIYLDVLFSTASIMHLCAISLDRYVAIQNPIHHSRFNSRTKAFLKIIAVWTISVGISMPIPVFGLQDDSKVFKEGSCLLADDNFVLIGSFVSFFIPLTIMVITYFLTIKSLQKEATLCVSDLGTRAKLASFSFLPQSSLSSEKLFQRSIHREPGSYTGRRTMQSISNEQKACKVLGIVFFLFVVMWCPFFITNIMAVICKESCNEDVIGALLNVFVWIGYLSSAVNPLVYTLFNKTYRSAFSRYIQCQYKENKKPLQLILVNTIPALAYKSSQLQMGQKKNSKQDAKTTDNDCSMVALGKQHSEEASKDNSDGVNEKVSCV", "assay": "Displacement of [3H]-ketanserin from human 5-HT2A receptor expressed in CHO cell membranes after 1 hr"}, "[37]": {"test_system": "Rattus norvegicus", "assay": "Anticonvulsant activity in po Sprague-Dawley rat assessed as protection against subcutaneous pentylenetetrazole-induced seizures measured after 1 hr", "assay_type": "functional"}},
  "note": "pIC50, pKi: −log10 of the molar value. Active and inactive are the calls of the source. No cut-off for these calls is given here.",
  "data": [
    {"smiles": "c1ccc2c(OCCCCCN3CCCCC3)cccc2c1", "values": [
      {"measurement": "ED50", "setting": "[1]", "result": 30, "unit": "mg/kg"},
      {"measurement": "Activity", "setting": "[2]", "result": "Non-Toxic"},
      {"measurement": "pKi", "setting": "[3]", "result": 5.60},
      {"measurement": "ED50", "setting": "[4]", "result": 31.1, "unit": "mg/kg"},
      {"measurement": "Activity", "setting": "[5]", "result": "Active"},
      {"measurement": "Activity", "setting": "[6]", "result": "Non-Toxic"},
      {"measurement": "ED50", "setting": "[7]", "result": 33.1, "unit": "mg/kg"},
      {"measurement": "ED50", "setting": "[8]", "result": 17.8, "unit": "mg/kg"},
      {"measurement": "ED50", "setting": "[9]", "result": "> 100", "unit": "mg/kg"},
      {"measurement": "Activity", "setting": "[10]", "result": "Non-Toxic"},
      {"measurement": "Activity", "setting": "[11]", "result": "Non-Toxic"},
      {"measurement": "Activity", "setting": "[12]", "result": "Non-Toxic"},
      {"measurement": "Activity", "setting": "[13]", "result": "inactive"},
      {"measurement": "Activity", "setting": "[14]", "result": "Non-Toxic"},
      {"measurement": "TD50 at 0.25 h", "setting": "[15]", "result": 94.8, "unit": "mg/kg"},
      {"measurement": "Activity", "setting": "[16]", "result": "Non-Toxic"},
      {"measurement": "pIC50", "setting": "[17]", "result": "< 4.30"},
      {"measurement": "Activity", "setting": "[18]", "result": "Active"},
      {"measurement": "Activity", "setting": "[19]", "result": "Non-Toxic"},
      {"measurement": "Activity", "setting": "[20]", "result": "inactive"},
      {"measurement": "Activity", "setting": "[21]", "result": "inactive"},
      {"measurement": "Activity", "setting": "[22]", "result": "inactive"},
      {"measurement": "Activity", "setting": "[23]", "result": "inactive"},
      {"measurement": "Activity", "setting": "[24]", "result": "inactive"},
      {"measurement": "pIC50", "setting": "[25]", "result": "< 4.30"},
      {"measurement": "Activity", "setting": "[26]", "result": "inactive"},
      {"measurement": "Activity", "setting": "[27]", "result": "Active"},
      {"measurement": "pIC50", "setting": "[28]", "result": 6.78},
      {"measurement": "inhibition", "setting": "[28]", "result": "Dose-dependent effect"},
      {"measurement": "Activity", "setting": "[29]", "result": "Active"},
      {"measurement": "Activity", "setting": "[30]", "result": "inactive"},
      {"measurement": "selectivity ratio", "setting": "[31]", "result": "> 6.4"},
      {"measurement": "Activity", "setting": "[32]", "result": "Non-Toxic"},
      {"measurement": "Activity", "setting": "[33]", "result": "inactive"},
      {"measurement": "ED50", "setting": "[34]", "result": 57.2, "unit": "mg/kg"},
      {"measurement": "selectivity ratio", "setting": "[35]", "result": 4.9},
      {"measurement": "pKi", "setting": "[36]", "result": 5.41},
      {"measurement": "ED50", "setting": "[37]", "result": "> 250", "unit": "mg/kg"}
    ]}
  ]
}
